# Values quoted from earlier work, collected in US7989007B2, “Weight loss composition” (Vincent James Enterprises, LLC, priority 2007, dated 2011).
# Conditions: subjects treated for hypertension; similar degree of hypertension control
compound,measurement,value
CC(C)NCC(O)COc1ccc(CC(N)=O)cc1 (stereo not shown) [atenolol],weight gain compared to patients treated with captopril,twice the weight gain
